The source of these data is US20230140691A1, “OPTICALLY CLEAR, IN-SITU FORMING BIODEGRADABLE NANO-CARRIERS FOR OCULAR THERAPY, AND METHODS USING SAME” (Rowan University, priority 2017, published 2023).

A short description of the data set: In vitro drug release from PLGA-PEG-PLGA hydrogel in microfluidic devices at physiological flow rate. The following applies: 15 μg HA loaded; for release rate of hyaluronic acid from hydrogel: 35° C.; for amount of HA released: in 10 days. It is filed as physicochemical. On the procedure:
The final volume of the hydrogel solution with the compound of interest was constrained to 100 μL because of the anatomical space in the lens capsule. Physiological flow rate (2.4 μl/min) was achieved using microfluidic devices. The devices resemble the anatomical dimensions of both the anterior and posterior chamber of the human eye, as well as the physiological dynamics of the aqueous humor flow. All of the release studies were conducted at 35° C. • a. Dexamethasone (Hydrophobic): 100 μL of PLGA-PEG-PLGA hydrogel solution at 25 (w/v) % was mixed with 100 μg of dexamethasone. The collected samples were analyzed via HPLC. • b. […] The collected samples were analyzed via fluoresce spectroscopy at an excitation, filter, and emission wavelengths (nm) of 483, 515 524, respectively • c. Nucleic acid conjugates (Hydrophilic): 62 μL of nucleic acid conjugates in PBS solution (31 μg) were mixed with 38 μL of hydrogel solution at a concentration of 25 (w/v) %. Because the nucleic acid conjugates were already dissolved in PBS, the hydrogel solution was diluted down to 14 (w/v) %. The collected samples were analyzed via fluorescence spectroscopy at an excitation, filter, and emission wavelengths (nm) of 642, 665, and 670, respectively. • d. Hyaluronic acid (Hydrophilic): 30 μL of hyaluronic acid (HA, 800 KDa) stock solution at a concentration of 0.5 mg/mL in PBS (15 ug of HA) was mixed with 56 μL of hydrogel solution at a concentration of 25 (w/v) %. In addition, 14 μL of PBS were added to diluted the hydrogel solution down to 14 (w/v) %. Samples containing PLL were prepared by adding to the already mentioned composition 10 mg of PLL (10 (w/v) % PLL). The collected samples were analyzed via fluorescence spectroscopy at an excitation, filter, and emission wavelengths (nm) of 483, 495, 518, respectively.

The mark [1] stands for this setting: systems modified with 10 (w/v) % PLL.

For Hyaluronic acid, under “control systems, no PLL”, the “release rate of hyaluronic acid from hydrogel” value stood at 0.087 ± 0.044 µg/h and the “amount of HA released” value was 13 µg. For the same substance, under setting [1], the “release rate of hyaluronic acid from hydrogel” value is reported as 0.055±0.026 and the “amount of HA released” value is 11 µg.
